Measured values published in US20150148393A1, “COSMETIC AND/OR PHARMACEUTICAL COMPOSITION FOR THE TREATMENT OF SKIN INFLAMMATION AND RELATED SYNDROMES” (GENERAL TOPICS S.R.L., priority 2012, published 2015).

Tested on: TNF alpha release from human keratinocytes
Test: Inhibition of SLS-induced TNF alpha release from human keratinocytes
Assay type: cell-based
Settings: release induced by sodium lauryl sulphate (SLS), after a 24 hour-period
Description: A comparison was made between the inhibition of TNF alpha release from human keratinocytes as induced by contact with sodium lauryl sulphate (SLS) and obtained with the use of methyl sulfonyl methane (MSM), and that obtained with the use of hydrocortisone, a compound known to be active in inhibiting the release of TNF alpha. […] Therefore, the studies performed pointed out that MSM can decrease both the release of TNF alpha (this cytokine is expressed by keratinocytes in an inflammatory process of the skin) and the overall intensity of erythema even when TNF alpha is over-expressed by ultraviolet radiations. […] Moreover, it should be noted that TNF alpha can activate TRPV receptors and, therefore, a decrease in the production thereof can prevent it from exerting an agonist effect on the receptors themselves.

Row | Structure (SMILES) | percentage decrease of TNF alpha release [%]
1 | CS(C)(=O)=O [MSM, methyl sulfonyl methane] | 12.33
2 | C[C@]12CCC(=O)C=C1CC[C@@H]1[C@@H]2[C@@H](O)C[C@@]2(C)[C@H]1CC[C@]2(O)C(=O)CO [hydrocortisone] | 5.25
